Experimental data reported in PubChem BioAssay (NCI).
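Cultured in 96-well plates, cells were exposed to test compound for 48 hours across five concentrations. GI50 marks 50% less growth. TGI is the concentration that stops growth completely.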

Tests used:
Assay in all cases: inhibition of tumour cell growth, NCI panel, 48 h
786-0 renal = system: 786-0 renal
A549 NSCLC = system: A549 NSCLC
ACHN renal = system: ACHN renal
BT-549 breast = system: BT-549 breast
CAKI-1 renal = system: CAKI-1 renal
COLO 205 colon = system: COLO 205 colon
DU-145 prostate = system: DU-145 prostate
EKVX NSCLC = system: EKVX NSCLC
HCC-2998 colon = system: HCC-2998 colon
HCT-116 colon = system: HCT-116 colon
HCT-15 colon = system: HCT-15 colon
HL-60(TB) leukemia = system: HL-60(TB) leukemia
HOP-62 NSCLC = system: HOP-62 NSCLC
HOP-92 NSCLC = system: HOP-92 NSCLC
HS 578T breast = system: HS 578T breast
IGROV1 ovarian = system: IGROV1 ovarian
K-562 leukemia = system: K-562 leukemia
KM12 colon = system: KM12 colon
LOX IMVI melanoma = system: LOX IMVI melanoma
M14 melanoma = system: M14 melanoma
MCF7 breast = system: MCF7 breast
MDA-MB-231 breast = system: MDA-MB-231 breast
MDA-MB-435 = system: MDA-MB-435
NCI-H23 lung = system: NCI-H23 lung
NCI-H460 lung = system: NCI-H460 lung
NCI-H522 lung = system: NCI-H522 lung
NCI/ADR-RES ovarian = system: NCI/ADR-RES ovarian
OVCAR-3 ovarian = system: OVCAR-3 ovarian
OVCAR-4 ovarian = system: OVCAR-4 ovarian
OVCAR-5 ovarian = system: OVCAR-5 ovarian
OVCAR-8 ovarian = system: OVCAR-8 ovarian
PC-3 prostate = system: PC-3 prostate
RPMI-8226 leukemia = system: RPMI-8226 leukemia
RXF 393 renal = system: RXF 393 renal
SF-268 CNS = system: SF-268 CNS
SF-295 CNS = system: SF-295 CNS
SF-539 CNS = system: SF-539 CNS
SK-MEL-2 melanoma = system: SK-MEL-2 melanoma
SK-MEL-28 melanoma = system: SK-MEL-28 melanoma
SK-MEL-5 melanoma = system: SK-MEL-5 melanoma
SK-OV-3 ovarian = system: SK-OV-3 ovarian
SN12C renal = system: SN12C renal
SNB-19 CNS = system: SNB-19 CNS
SNB-75 CNS = system: SNB-75 CNS
SR leukemia = system: SR leukemia
SW-620 colon = system: SW-620 colon
T-47D breast = system: T-47D breast
TK-10 renal = system: TK-10 renal
U251 CNS = system: U251 CNS
UACC-257 melanoma = system: UACC-257 melanoma
UACC-62 melanoma = system: UACC-62 melanoma
UO-31 renal = system: UO-31 renal

## CCOC(=O)c1nc(Nc2ccc(Cl)cc2)c2ccccc2n1
786-0 renal
  GI50: 10.4 µM
  TGI: 21.4 µM
A549 NSCLC
  GI50: 11.3 µM
  TGI: 26.2 µM
ACHN renal
  GI50: 9.3 µM
  TGI: 19.2 µM
BT-549 breast
  GI50: 10.2 µM
  TGI: 25.5 µM
CAKI-1 renal
  GI50: 7.73 µM
  TGI: 16.3 µM
COLO 205 colon
  GI50: 9.8 µM
  TGI: 20.6 µM
DU-145 prostate
  GI50: 7.39 µM
  TGI: 15.1 µM
EKVX NSCLC
  GI50: 13 µM
  TGI: 44.1 µM
HCC-2998 colon
  GI50: 8.46 µM
  TGI: 15.6 µM
HCT-116 colon
  GI50: 25.1 µM
  TGI: > 50 µM
HCT-15 colon
  GI50: 14.9 µM
  TGI: > 50 µM
HL-60(TB) leukemia
  GI50: > 50 µM
  TGI: > 50 µM
HOP-62 NSCLC
  GI50: 16.4 µM
  TGI: > 50 µM
HOP-92 NSCLC
  GI50: 9.49 µM
  TGI: 26.8 µM
HS 578T breast
  GI50: 11.3 µM
  TGI: 27.2 µM
IGROV1 ovarian
  GI50: 10.7 µM
  TGI: 26 µM
K-562 leukemia
  GI50: 46 µM
  TGI: > 50 µM
KM12 colon
  GI50: 7.42 µM
  TGI: 15.1 µM
LOX IMVI melanoma
  GI50: 9.92 µM
  TGI: 18.6 µM
M14 melanoma
  GI50: 12.4 µM
  TGI: 30.6 µM
MCF7 breast
  GI50: 13.6 µM
  TGI: > 50 µM
MDA-MB-231 breast
  GI50: 14.1 µM
  TGI: 42 µM
MDA-MB-435
  GI50: 6.85 µM
  TGI: 13.3 µM
NCI-H23 lung
  GI50: 10.7 µM
  TGI: 18.9 µM
NCI-H460 lung
  GI50: 9.44 µM
  TGI: 23.7 µM
NCI-H522 lung
  GI50: 10.5 µM
  TGI: 25.8 µM
NCI/ADR-RES ovarian
  GI50: 13.2 µM
  TGI: 22.9 µM
OVCAR-3 ovarian
  GI50: 6.11 µM
  TGI: 13.2 µM
OVCAR-4 ovarian
  GI50: 11.3 µM
  TGI: 47.9 µM
OVCAR-5 ovarian
  GI50: 10.7 µM
  TGI: 22.3 µM
OVCAR-8 ovarian
  GI50: 12.3 µM
  TGI: 28.5 µM
PC-3 prostate
  GI50: 11.6 µM
  TGI: > 50 µM
RPMI-8226 leukemia
  GI50: 11.8 µM
  TGI: 30.2 µM
RXF 393 renal
  GI50: 7.35 µM
  TGI: 16.8 µM
SF-268 CNS
  GI50: 10.1 µM
  TGI: 25.1 µM
SF-295 CNS
  GI50: 8.09 µM
  TGI: 15.6 µM
SF-539 CNS
  GI50: 10.6 µM
  TGI: 20.9 µM
SK-MEL-2 melanoma
  GI50: 13.2 µM
  TGI: 30.4 µM
SK-MEL-28 melanoma
  GI50: 7.5 µM
  TGI: 17.6 µM
SK-MEL-5 melanoma
  GI50: 7.19 µM
  TGI: 13.8 µM
SK-OV-3 ovarian
  GI50: 10.6 µM
  TGI: 24 µM
SN12C renal
  GI50: 11.5 µM
  TGI: 27.4 µM
SNB-19 CNS
  GI50: 13.5 µM
  TGI: 43.2 µM
SNB-75 CNS
  GI50: 11.9 µM
  TGI: 29.5 µM
SR leukemia
  GI50: 8.87 µM
  TGI: > 50 µM
SW-620 colon
  GI50: 17.2 µM
  TGI: > 50 µM
T-47D breast
  GI50: 8.36 µM
  TGI: 22.5 µM
TK-10 renal
  GI50: 8.11 µM
  TGI: 19.3 µM
U251 CNS
  GI50: 8.86 µM
  TGI: 18.5 µM
UACC-257 melanoma
  GI50: 13 µM
  TGI: 30.6 µM
UACC-62 melanoma
  GI50: 10 µM
  TGI: 20.5 µM
UO-31 renal
  GI50: 8.87 µM
  TGI: 18.8 µM
